According to EP4624457A1, “I[…] DERIVATIVES, I[…] NEURODEGENERATIVE DISEASES” (Centre National de la Recherche Scientifique, priority 2024, dated 2025):

Tests used:
[1] = molecular target: muscle (α1)2βγδ nAChR subtype (Torpedo marmorata, UniProt P02711+Q6S3H8+Q6S3H9); conditions: antagonistic activity, TEVC; value (95% CI); read-out: nAChR subtype (nM; 95% CI) α12β1γδ (Torpedo); cited from earlier work
human α7 nAChR subtype [2] = molecular target: T1, human α7 nAChR subtype (Homo sapiens, UniProt P36544); conditions: antagonistic activity, TEVC; value (95% CI); cited from earlier work
T1 construct: expressed in transfected cells; host or cells: Xenopus laevis oocytes injected with mRNA

α4β2 nAChR = α4β2 nAChR (Homo sapiens, UniProt P17787+P43681); conditions: antagonistic activity, TEVC; value (95% CI); read-out: nAChR subtype (nM; 95% CI) α4β2 (human); cited from earlier work
human α7 nAChR subtype [3] = molecular target: T1, human α7 nAChR subtype; test: Two-electrode voltage clamp electrophysiology on Xenopus laevis oocytes expressing the α7 nAChR; format: cell-based
From the text: The emerging cyclic imines toxins (CiTXs) of global distribution across coastal environments that are produced by dinoflagellates move fast up the human food chain through shellfish. The CiTX family includes 44 compounds: 7 gymnodimines (A-E, 12-methylgymnodimine and 16-desmethyl gymnodimine D), 16 spirolides (A-D, G-I, 13-desmethyl spirolide-C, 27-Hydroxy-13-desmethyl spirolide-C, 13,19-didesmethyl spirolide-C, 20-hydroxy-13,19-didesmethyl spirolide- C, 27-hydroxy-13,19-spirolide-C, 27-Oxo-13,19-didesmethyl spirolide-C, 13-desmethyl spirolide-D, 20-hydroxy-13,19-didesmethyl spirolide-D and 20-methyl spirolide-G), 8 pinnatoxins (A-H), 3 pteriatoxins (A-C), 6 prorocentrolides (A-B, 4- hydroxyprorocentrolide, 9,51-dihydro prorocentrolide, 30-sulfate prorocentrolide and 14-O-acetyl-4-hydroxyprorocentrolide), 1 spiroprorocentrimine, 2 portimines (A and B), and 1 kabirimine, (Aráoz et al. (2020) Cyclic imine toxins survey in coastal european shellfish samples: Bioaccumulation and mode of action of 28-O-palmitoyl ester of pinnatoxin-G. First report of portimine-A bioaccumulation. Harmful Algae, 98 [1]). The spiroimine moiety is the major feature characterizing cyclic imine toxins. The exception to this rule is prorocentrolides in which a hexahydroisoquinoline group replaces the spiroimine motif, (Torigoe et al. (1988) Prorocentrolide, a toxic nitrogenous macrocycle from a marine dinoflagellate, Prorocentrum-lima. Journal of the American Chemical Society, 110:7876-7877 [2]). Portimines display a 5-membered cyclic imine ring; gymnodimines, prorocentrolides, spiroprorocentrimines and kabirimine present a 6-membered imine ring, while spirolides, pinnatoxins and pteriatoxins display a 7-membered imine ring. Cyclic imine toxins are fast acting neurotoxins that, when administered intraperitoneally or by gavage at lethal doses, kill mice by respiratory arrest within minutes following blockade of neuromuscular nicotinic acetylcholine receptors (nAChR). The mode of action of several cyclic imines on nAChRs has been characterized, namely: gymnodimine-A, 13- desmethyl spirolide- C, 13,19-didesmethyl spirolide-C, 20-methyl spirolide-G, pinnatoxin-A, pinnatoxin-G, prorocentrolide-A and portimine, (Lamoise et al. (2017) Physico-chemical and functional characterization of portimine purified from Vulcanodinium rugosum strain IFR-VRU-01. In "Marine and Fresh-Water Harmful Algae". Proceedings of the 17th International Conference on Harmful Algae (Proença, L.A.O. and Hallegraeff, G. eds) pp. 126-129 ISSHA and IOC/UNESCO, Florianapolis; Molgó et al. (2017) Cyclic imine toxins from dinoflagellates: a growing family of potent antagonists of the nicotinic acetylcholine receptors. Journal of Neurochemistry, 142:41-51 [4]). They are potent antagonists of muscular and neuronal nicotinic acetylcholine receptors with pinnatoxin-A displaying picomolar affinities towards the α7 nicotinic acetylcholine receptor subtype (Aráoz et al. (2011) Total synthesis of pinnatoxins A and G and revision of the mode of action of pinnatoxin A. Journal of the American Chemical Society 133(27):10499-10511 [5]). In contrast, prorocentrolide and portimine show micromolar affinities towards the α7 nicotinic acetylcholine receptor subtype (Lamoise et al. (2017), Stivala et al. (2015) Synthesis and biology of cyclic imine toxins, an emerging class of potent, globally distributed marine toxins. Natural Product Reports, 32(3):411-435 [6]) (Table1). Table 1. Antagonistic activity of CiTX (Two-Electrodes Voltage Clamp electrophysiology).
• Figure 1 represents the chemical structure of ingrilimine according to compound (Illa) formula. • Figure 2 represents the cytotoxic activity of ingrilimine. A2780 ovarian and HT29 colorectal carcinoma cells were grown in RPMI 1640 supplemented with 10% fetal calf serum (FCS) and 1% glutamine. […]

[4] = system: 3T3, L929, 4T1 and Caco-2 cells; conditions: normal cell lines 3T3 and L929, tumor cell line 4T1, Caco-2 cells; cited from earlier work
cancer cell lines = conditions: literature (Tang et al. 2023; Fribley et al. 2019); cited from earlier work
P338 leukemia cell line = conditions: mouse P338 leukemia cell line; cited from earlier work

T1 sequence (P36544 23-502): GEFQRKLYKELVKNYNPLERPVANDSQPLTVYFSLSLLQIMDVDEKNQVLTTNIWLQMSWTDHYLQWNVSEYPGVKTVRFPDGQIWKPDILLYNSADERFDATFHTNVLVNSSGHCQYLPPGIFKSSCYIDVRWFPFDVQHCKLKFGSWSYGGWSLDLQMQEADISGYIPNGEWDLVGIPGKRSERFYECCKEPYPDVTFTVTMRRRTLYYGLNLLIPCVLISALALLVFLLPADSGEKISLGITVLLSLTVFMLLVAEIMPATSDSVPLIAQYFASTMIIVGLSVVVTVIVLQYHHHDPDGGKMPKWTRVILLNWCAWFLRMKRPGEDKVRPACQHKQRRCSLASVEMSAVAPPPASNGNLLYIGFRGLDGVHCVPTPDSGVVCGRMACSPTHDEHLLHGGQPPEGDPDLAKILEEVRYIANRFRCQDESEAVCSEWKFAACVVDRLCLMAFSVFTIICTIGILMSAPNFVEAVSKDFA
Chain of α4β2 nAChR (P43681 29-627): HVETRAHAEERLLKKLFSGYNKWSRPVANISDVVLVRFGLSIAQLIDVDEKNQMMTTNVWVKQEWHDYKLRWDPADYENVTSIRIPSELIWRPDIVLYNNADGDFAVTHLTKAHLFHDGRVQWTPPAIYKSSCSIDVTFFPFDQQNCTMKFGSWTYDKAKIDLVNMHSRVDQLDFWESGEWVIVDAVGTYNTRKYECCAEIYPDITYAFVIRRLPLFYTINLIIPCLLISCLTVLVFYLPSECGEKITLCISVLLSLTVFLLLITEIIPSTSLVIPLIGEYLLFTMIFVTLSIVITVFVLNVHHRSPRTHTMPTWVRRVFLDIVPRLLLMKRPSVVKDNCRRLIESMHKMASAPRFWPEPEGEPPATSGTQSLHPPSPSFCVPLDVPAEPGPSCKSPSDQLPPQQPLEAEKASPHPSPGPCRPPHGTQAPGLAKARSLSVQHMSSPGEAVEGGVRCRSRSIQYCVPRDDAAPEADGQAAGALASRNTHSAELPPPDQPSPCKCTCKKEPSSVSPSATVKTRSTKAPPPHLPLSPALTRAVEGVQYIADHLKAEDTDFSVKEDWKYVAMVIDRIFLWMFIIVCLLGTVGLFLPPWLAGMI
Chain of α4β2 nAChR (P17787 26-502): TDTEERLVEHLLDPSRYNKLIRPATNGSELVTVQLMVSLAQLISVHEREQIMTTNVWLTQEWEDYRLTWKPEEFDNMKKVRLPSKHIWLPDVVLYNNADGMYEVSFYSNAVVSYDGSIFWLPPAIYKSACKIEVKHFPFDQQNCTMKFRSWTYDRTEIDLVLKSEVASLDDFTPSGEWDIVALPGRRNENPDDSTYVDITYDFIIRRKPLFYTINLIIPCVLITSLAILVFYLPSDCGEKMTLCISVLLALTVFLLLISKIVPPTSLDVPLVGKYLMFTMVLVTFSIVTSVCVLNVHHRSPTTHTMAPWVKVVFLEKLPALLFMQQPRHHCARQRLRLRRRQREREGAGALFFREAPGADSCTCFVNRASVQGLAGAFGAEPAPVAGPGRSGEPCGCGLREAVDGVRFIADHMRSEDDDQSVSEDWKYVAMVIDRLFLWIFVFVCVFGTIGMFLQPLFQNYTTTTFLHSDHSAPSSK
Chain of muscle (α1)2βγδ nAChR subtype (P02711 25-461): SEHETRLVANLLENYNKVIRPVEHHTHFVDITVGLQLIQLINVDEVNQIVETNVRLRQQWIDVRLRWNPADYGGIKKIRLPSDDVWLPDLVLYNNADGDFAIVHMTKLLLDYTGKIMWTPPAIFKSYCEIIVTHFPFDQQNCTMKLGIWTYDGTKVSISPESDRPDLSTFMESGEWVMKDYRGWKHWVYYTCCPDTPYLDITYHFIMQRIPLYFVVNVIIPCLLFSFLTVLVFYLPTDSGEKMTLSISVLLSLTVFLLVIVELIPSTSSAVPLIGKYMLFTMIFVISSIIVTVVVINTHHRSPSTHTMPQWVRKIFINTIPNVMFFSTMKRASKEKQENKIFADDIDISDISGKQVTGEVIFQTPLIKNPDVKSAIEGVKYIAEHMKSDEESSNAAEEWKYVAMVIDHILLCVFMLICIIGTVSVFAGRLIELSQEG
Chain of muscle (α1)2βγδ nAChR subtype (Q6S3H9 entry or part of it): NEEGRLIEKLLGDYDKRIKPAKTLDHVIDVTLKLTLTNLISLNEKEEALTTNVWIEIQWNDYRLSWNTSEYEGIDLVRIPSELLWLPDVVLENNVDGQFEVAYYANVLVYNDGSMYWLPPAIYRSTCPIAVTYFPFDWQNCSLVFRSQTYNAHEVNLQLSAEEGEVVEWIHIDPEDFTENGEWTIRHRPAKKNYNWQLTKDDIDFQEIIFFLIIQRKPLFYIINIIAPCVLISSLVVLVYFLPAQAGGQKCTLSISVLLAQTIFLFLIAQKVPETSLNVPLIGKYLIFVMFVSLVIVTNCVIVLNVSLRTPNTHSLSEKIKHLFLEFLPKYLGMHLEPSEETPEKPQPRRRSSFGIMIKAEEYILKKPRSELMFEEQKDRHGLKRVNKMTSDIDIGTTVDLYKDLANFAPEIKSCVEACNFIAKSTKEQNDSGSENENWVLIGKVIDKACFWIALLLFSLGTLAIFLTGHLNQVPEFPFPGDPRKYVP
Chain of muscle (α1)2βγδ nAChR subtype (Q6S3H8 entry or part of it): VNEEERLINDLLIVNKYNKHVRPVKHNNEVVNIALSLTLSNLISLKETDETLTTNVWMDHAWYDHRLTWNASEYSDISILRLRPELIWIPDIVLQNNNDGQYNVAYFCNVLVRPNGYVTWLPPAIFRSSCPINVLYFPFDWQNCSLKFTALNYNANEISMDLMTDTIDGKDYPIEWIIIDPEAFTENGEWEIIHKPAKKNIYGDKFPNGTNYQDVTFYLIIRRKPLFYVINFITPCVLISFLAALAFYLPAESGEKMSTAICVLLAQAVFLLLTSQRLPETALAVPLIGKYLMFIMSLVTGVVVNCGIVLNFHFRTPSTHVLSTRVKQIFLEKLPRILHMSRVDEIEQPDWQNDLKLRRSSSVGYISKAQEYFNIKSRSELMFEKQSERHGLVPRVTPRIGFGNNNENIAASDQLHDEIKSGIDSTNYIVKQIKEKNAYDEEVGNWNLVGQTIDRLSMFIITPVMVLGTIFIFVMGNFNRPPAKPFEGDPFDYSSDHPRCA
Chain of muscle (α1)2βγδ nAChR subtype (Q6S3I0 entry or part of it, further chain): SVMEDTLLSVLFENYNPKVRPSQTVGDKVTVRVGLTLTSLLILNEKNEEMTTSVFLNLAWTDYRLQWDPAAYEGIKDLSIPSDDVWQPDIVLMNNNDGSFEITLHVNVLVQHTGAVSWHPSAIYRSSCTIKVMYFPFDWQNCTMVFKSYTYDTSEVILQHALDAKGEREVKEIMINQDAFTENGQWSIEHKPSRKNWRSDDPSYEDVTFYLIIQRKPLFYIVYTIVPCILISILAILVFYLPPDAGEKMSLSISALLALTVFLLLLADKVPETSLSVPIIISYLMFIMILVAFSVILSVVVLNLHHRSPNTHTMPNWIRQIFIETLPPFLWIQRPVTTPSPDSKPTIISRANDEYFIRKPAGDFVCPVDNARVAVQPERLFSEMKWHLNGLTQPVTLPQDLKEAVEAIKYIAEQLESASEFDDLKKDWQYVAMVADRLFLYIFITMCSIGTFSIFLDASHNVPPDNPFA

Molecule | IC50 [1] | IC50 (human α7 nAChR subtype [2]) | IC50 (α4β2 nAChR) | also measured
C=C1CCCC2=NCC(C)C(C)CC23CCC(C2C=C(C)C(=O)O2)=C(C)C3/C=C(\C)C(O)CC2CCC3(CCC4(OC(CCC4O)C1)O3)O2 (stereo not shown) [13,19-didesmethyl spirolide-C] | 0.2 nM | 0.25 nM | 6.26 nM | –
20-methyl spirolide-G | 0.36 nM | 0.48 nM | 2.1 nM | –
C=C1CCCC2=NCC(C)C(C)CC23CCC(C2C=C(C)C(=O)O2)=C(C)C3/C=C(/C)C(O)CC2CCC3(CCC4(OC(CCC4(C)O)C1)O3)O2 (stereo not shown) [13-desmethyl spirolide-C] | 0.51 nM | 0.18 nM | 3.9 nM | –
28-O-palmitoyl ester of pinnatoxin-G [Palmitate PnTX-G] | 0.97 nM | – | – | –
C=C1CCCC2OC(CC3=CC4/C(C)=C/CC(C)CC(/C=C(\C)C(O)C5CC(O)C(O)C(CCC(O)/C=C/C(C)=C/CCC6=NCCC(C3)C64C)O5)OC(=O)CC3CC(O)C(O3)C(O)C1)CC(O)C2O (stereo not shown) [Prorocentrolide] | 186 nM | 1660 nM | – | –
C=C1CCCC2=NC[C@H](C)[C@@H](C)C[C@@]23CCC(C(=O)O)=C[C@@H]3[C@@H]2O[C@]3(C[C@H]4CCC[C@@]5(CC[C@@]6(O[C@@H](CC[C@@]6(C)O)C1)O5)O4)C[C@@H](C)[C@@H](O)[C@H]2O3 [Pinnatoxine-A] | 5.53 nM | 0.107 nM | 30.4 nM | antagonistic activity against human α7 nAChR, times more potent than towards muscle-type (α1)2β1γδ nAChR (human α7 nAChR subtype [3]; selectivity α7 vs muscle-type): 50 times; antagonistic activity against human α7 nAChR, times more potent than against the human neuronal α4β2 nAChR subtype (human α7 nAChR subtype [3]; selectivity α7 vs α4β2): ~ 300 times
Gymnodimine-A | 2.8 nM | – | 0.9 nM | cytotoxic, concentration region [4]: micromolar region
portimine B | – | – | – | cytotoxic activities, order of magnitude (cancer cell lines): ~10^-7 M
C=C1CCCC2=NC[C@H](C)[C@@H](C)C[C@@]23CCC([C@@H]2CCC(=O)O2)=C[C@@H]3[C@@H]2O[C@@]3(C[C@@H](C)C[C@H]2O3)C[C@@H]2O[C@]3(CC[C@@]4(O[C@@H](CC[C@@]4(C)O)C1)O3)C[C@H](C)[C@@H]2O [pinnatoxin-F] | – | – | – | IC50 (P338 leukemia cell line): > 1000 nM
C=CC1=C[C@@H]2[C@@H]3O[C@]4(C[C@H]5CCC[C@@]6(CC[C@@]7(O[C@@H](CC[C@@]7(C)O)CC(=C)CCCC7=NC[C@H](C)[C@@H](C)C[C@@]72CC1)O6)O5)C[C@@H](C)[C@@H](O)[C@H]3O4 [Pinnatoxine-G] | 3.82 nM | 5.06 nM | 4.9 nM | –
